{"source": "paper PMC11011029", "about": "“Design and Preclinical Evaluation of a Novel Prostate-Specific Membrane Antigen Radioligand Modified with a Transthyretin Binder” (Cancers, 2024)", "origin": "cited, not measured here", "key": {"[1]": {"system": "PC-3 PIP/flu tumor-bearing mice", "settings": "24 h p.i."}, "[2]": {"parameters": "method as in PMID 29684274", "settings": "after 24 h incubation, same experimental conditions"}, "[3]": {"settings": "undiluted blood plasma"}, "PSMA": {"biological_target": "T1, PSMA (Homo sapiens, UniProt Q04609)", "T1 construct": "expressed in transfected cells; host or cells: PC-3 PIP cells (from Prof. Martin Pomper, Johns Hopkins)", "T1 sequence (Q04609 whole entry)": "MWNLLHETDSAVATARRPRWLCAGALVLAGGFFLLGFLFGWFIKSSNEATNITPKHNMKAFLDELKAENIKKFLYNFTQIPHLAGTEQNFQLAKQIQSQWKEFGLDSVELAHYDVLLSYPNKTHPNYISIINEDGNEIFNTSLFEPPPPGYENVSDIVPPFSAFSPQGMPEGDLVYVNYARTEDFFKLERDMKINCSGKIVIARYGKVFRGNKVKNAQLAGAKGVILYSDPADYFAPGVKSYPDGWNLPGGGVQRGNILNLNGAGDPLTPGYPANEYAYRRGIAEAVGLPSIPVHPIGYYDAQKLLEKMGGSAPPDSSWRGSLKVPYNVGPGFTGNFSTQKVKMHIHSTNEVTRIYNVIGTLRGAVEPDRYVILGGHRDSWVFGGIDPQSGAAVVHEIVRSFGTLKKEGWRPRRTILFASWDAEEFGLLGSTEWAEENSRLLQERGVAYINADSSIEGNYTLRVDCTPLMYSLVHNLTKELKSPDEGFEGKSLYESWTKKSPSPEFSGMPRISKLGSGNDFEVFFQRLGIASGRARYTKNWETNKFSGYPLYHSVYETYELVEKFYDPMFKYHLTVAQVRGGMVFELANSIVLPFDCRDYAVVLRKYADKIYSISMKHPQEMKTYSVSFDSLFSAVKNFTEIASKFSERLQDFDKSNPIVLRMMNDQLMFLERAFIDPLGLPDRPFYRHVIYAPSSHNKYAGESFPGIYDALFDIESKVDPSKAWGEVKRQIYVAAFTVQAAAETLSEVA", "parameters": "method as in PMID 32042329", "settings": "read-out: PSMA-binding affinity KD"}}}
{"substance": "[^177Lu]Lu-PSMA-617", "values": [{"measurement": "uptake in PC-3 PIP xenografts", "setting": "[1]", "result": "37 ± 6", "unit": "% IA/g"}, {"measurement": "intact radioligand", "setting": "[2]", "result": "< 2", "unit": "%"}, {"measurement": "fraction bound to serum proteins", "setting": "[3]", "result": "59 ± 1", "unit": "%"}, {"measurement": "logD", "result": "−4.4"}, {"measurement": "Kd", "setting": "PSMA", "result": "13 ± 1", "unit": "nM"}]}
